How the values were obtained:
Assay type in all cases: cell-based
U2OS cells [1] = assay: Change in motion speed by motor protein inhibitor (phase contrast imaging, average motion speed); conditions: imaging time 60 minutes
Protocol: Images (moving image) of U2OS cells cultured at different medicine concentrations were captured with a phase contrast microscope. […] For the AMP-PNP, three types of cells respectively having medicine concentrations of 67, 200, and 670 micro M and a comparative cell to which nothing is administered were prepared. For the ATA, three types of cells respectively having medicine concentrations of 10, 30, and 100 micro M and a comparative cell to which nothing is administered were prepared. The magnification power of the microscope was 20×, the imaging interval was 5 frames per second, and the imaging time was 60 minutes. After motion vectors were calculated at intervals of approximately 1 micrometer, an average of the motion amount per unit time (motion speed) was calculated, to create a graph.
FIG. 27 is a graph of a motion speed for the cells to which AMP-PNP is administered at different medicine concentrations. FIG. 28 is a graph of a motion speed for the cells to which ATA is administered at different medicine concentrations.

U2OS cells [2] = assay: Change in motion speed by metabolic inhibition with mitochondrial uncoupler (phase contrast imaging, relative motion area); conditions: U2OS cells, 0.5, 5 and 50 micro M, imaging time 20 minutes, versus comparative cell (FIG. 26)
Protocol: Images (moving image) of U2OS cells cultured at different medicine concentrations were captured with a phase contrast microscope. A medicine was CCCP, which is a mitochondrial uncoupler used as a metabolic inhibitor. Three types of cells respectively having medicine concentrations of 0.5, 5, and 50 micro M and a comparative cell to which nothing is administered were prepared. The magnification power of the microscope was 20×, the imaging interval was 5 frames per second, and the imaging time was 20 minutes. After motion vectors were calculated at intervals of approximately 1 micrometer, a relative motion area was calculated to create a graph.
FIG. 26 is a graph of a relative motion area for the cells cultured at different medicine concentrations.

U2OS cells [3] = assay: Change in motion speed by microtubule disruption (phase contrast imaging, motion vector analysis); conditions: 2 micro M, imaging time 20 minutes; for motion area in color map of motion speed: versus comparative cell (FIGS. 20, 22, 24); for relative motion area (proportion of the motion area to the cell area): versus comparative cell to which nothing is administered (FIG. 25)
Protocol: Images (moving image) of U2OS cells cultured on different conditions were captured with a phase contrast microscope. Three types of cells, i.e., a cell to which Paclitaxel of 2 micro M is administered, a cell to which Nocodazole of 2 micro M is administered, and a comparative cell to which nothing is administered, were prepared. The Paclitaxel stabilizes a microtubule. The Nocodazole destabilizes a microtubule. The magnification power of the microscope was 20×, the imaging interval was 5 frames per second, and the imaging time was 20 minutes. After motion vectors were calculated at intervals of approximately 1 micrometer, a spatiotemporal average of the motion amount per unit time (motion speed) of each coordinate was calculated, to create a color map. Further, on the basis of the proportion of the cell within the captured image, a cell area and a motion area indicating a motion speed larger than a predetermined motion speed were calculated, and a relative motion area indicating a proportion of the motion area to the cell area was specified, to create a graph.
FIG. 19 is a phase-contrast image of a comparative cell to which nothing is administered, and FIG. 20 is a color map of the comparative cell. FIG. 21 is a phase-contrast image of a cell to which Paclitaxel is administered, and FIG. 22 is a color map of the cell. FIG. 23 is a phase-contrast image of a cell to which Nocodazole is administered, and FIG. 24 is a color map of the cell. FIG. 25 is a graph of a relative motion area for the cells cultured on those three conditions.

| Structure (SMILES) | motion area in color map of motion speed (U2OS cells [3]) | relative motion area (proportion of the motion area to the cell area) (U2OS cells [3]) | other results |
| --- | --- | --- | --- |
| Nc1ncnc2c1ncn2[C@@H]1O[C@H](COP(=O)(O)OP(=O)(O)NP(=O)(O)O)[C@@H](O)[C@H]1O [AMP-PNP] |  |  | motion speed (average of the motion amount per unit time) (U2OS cells [1]; U2OS cells, 67, 200 and 670 micro M, versus comparative cell (FIG. 27)): the value of the motion speed decreases in accordance with an increase of the medicine concentration |
| O=C(O)C1=CC(=C(c2ccc(O)c(C(=O)O)c2)c2ccc(O)c(C(=O)O)c2)C=CC1=O [ATA] |  |  | motion speed (average of the motion amount per unit time) (U2OS cells [1]; U2OS cells, 10, 30 and 100 micro M, versus comparative cell (FIG. 28)): the value of the motion speed decreases in accordance with an increase of the medicine concentration |
| N#CC(C#N)=NNc1cccc(Cl)c1 [CCCP] |  |  | relative motion area (U2OS cells [2]): the value of the relative motion area decreases in accordance with an increase of the concentration of CCCP |
| COC(=O)Nc1nc2ccc(C(=O)c3cccs3)cc2[nH]1 [Nocodazole] | the motion area obviously shrinks in the color map | the value of the relative motion area decreases |  |
| CC(=O)O[C@H]1C(=O)[C@@]2(C)[C@H]([C@H](OC(=O)c3ccccc3)[C@]3(O)C[C@H](OC(=O)[C@H](O)[C@@H](NC(=O)c4ccccc4)c4ccccc4)C(C)=C1C3(C)C)[C@]1(OC(C)=O)CO[C@@H]1C[C@@H]2O [Paclitaxel] | do not have difference in color map | do not have difference in color map and in value of the relative motion area |  |
